Active and inactive are the calls of the source. The calls are words filed in the database; no cut-off is given here.
Tests used:
[1] = Oral bioavailability in Wistar Han rat at 2 mg/kg; type: ADME, organism-based; details: in vivo
Cytochrome P450 2C8 = biological target: T1, Cytochrome P450 2C8 (Homo sapiens, UniProt P10632); test: Inhibition of CYP2C8 (unknown origin)
T1 sequence (P10632 whole entry): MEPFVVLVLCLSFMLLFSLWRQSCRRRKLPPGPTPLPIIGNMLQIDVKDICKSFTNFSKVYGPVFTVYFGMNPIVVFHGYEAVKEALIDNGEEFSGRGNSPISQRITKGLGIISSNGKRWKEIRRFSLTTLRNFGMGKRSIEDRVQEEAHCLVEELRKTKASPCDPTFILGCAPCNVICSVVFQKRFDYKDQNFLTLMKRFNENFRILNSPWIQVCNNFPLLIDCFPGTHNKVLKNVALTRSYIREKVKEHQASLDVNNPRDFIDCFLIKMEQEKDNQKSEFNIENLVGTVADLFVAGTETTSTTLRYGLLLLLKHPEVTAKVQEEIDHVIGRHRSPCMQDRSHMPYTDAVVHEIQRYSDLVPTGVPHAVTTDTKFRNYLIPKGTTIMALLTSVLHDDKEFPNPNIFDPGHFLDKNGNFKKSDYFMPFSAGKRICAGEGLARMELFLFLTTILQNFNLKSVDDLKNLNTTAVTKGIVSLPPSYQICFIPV

[2] = Metabolic stability in Beagle dog liver microsomes by LC/MS analysis; type: ADME, Canis lupus familiaris, Microsome
Rattus norvegicus [3] = test: Diuretic activity in orally dosed spontaneous hypertensive rat assessed as urine volume treated for 3 days measured after 0 to 4 hrs of dosing; type: functional, organism-based; details: time 3.0 day
[4] = Metabolic stability in human hepatocytes by LC/MS analysis; type: ADME, cell-based, Hepatocyte
[5] = Cmax in Wistar Han rat at 2 mg/kg, po or 1 mg/kg, iv; type: ADME, organism-based; design: dose 2 mg/kg; details: in vivo
[6] = Inhibition of Kir2.1 (unknown origin); design: species or system Homo sapiens
[7] = Metabolic stability in human liver microsomes by LC/MS analysis; type: ADME, Microsome
[8] = AUC (0 to infinity) in Beagle dog at 2 mg/kg, po or 1 mg/kg, iv; type: ADME, organism-based, Canis lupus familiaris; design: dose 2 mg/kg; details: in vivo
[9] = Effective half life in rhesus monkey at 2 mg/kg, po or 1 mg/kg, iv; type: ADME, organism-based, Macaca mulatta; details: in vivo, read-out: t1/2eff (converted)
[10] = Tmax in Wistar Han rat at 2 mg/kg, po or 1 mg/kg, iv; type: ADME, organism-based; details: in vivo
Rattus norvegicus [11] = test: Antihypertensive activity in spontaneous hypertensive rat model assessed as decrease in systolic blood pressure at 1 mg/kg, po QD observed for 3 days; type: functional, organism-based; details: time 3.0 day
[12] = Volume of distribution at steady state in Beagle dog at 2 mg/kg, po or 1 mg/kg, iv; type: ADME, organism-based, Canis lupus familiaris; details: in vivo, read-out: Vdss
[13] = Effective half life in Beagle dog at 2 mg/kg, po or 1 mg/kg, iv; type: ADME, organism-based, Canis lupus familiaris; details: in vivo, read-out: t1/2eff (converted)
[14] = biological target: T2, ATP-sensitive inward rectifier potassium channel 1 (Homo sapiens, UniProt P48048); test: Inhibition of human ROMK expressed in CHO cells by whole cell voltage clamp electrophysiology assay; type: cell-based
T2 sequence (P48048 whole entry): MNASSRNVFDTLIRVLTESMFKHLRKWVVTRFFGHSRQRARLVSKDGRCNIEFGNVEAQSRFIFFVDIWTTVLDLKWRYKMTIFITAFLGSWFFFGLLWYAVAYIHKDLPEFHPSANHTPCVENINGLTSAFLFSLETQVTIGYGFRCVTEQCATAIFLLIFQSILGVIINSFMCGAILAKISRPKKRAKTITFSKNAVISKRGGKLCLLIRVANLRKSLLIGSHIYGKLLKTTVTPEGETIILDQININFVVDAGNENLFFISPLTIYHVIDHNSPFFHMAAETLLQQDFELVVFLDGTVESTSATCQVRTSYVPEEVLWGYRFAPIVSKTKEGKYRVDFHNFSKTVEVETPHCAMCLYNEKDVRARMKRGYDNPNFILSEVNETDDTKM

[15] = Oral bioavailability in Beagle dog at 2 mg/kg; type: ADME, organism-based, Canis lupus familiaris; details: in vivo
[16] = AUC (0 to infinity) in Wistar Han rat at 2 mg/kg, po or 1 mg/kg, iv; type: ADME, organism-based; design: dose 2 mg/kg; details: in vivo
[17] = Clearance in Wistar Han rat at 2 mg/kg, po or 1 mg/kg, iv; type: ADME, organism-based; details: in vivo
[18] = Drug metabolism in human hepatocytes assessed as metabolite formation by LC/MS analysis; type: ADME, cell-based, Hepatocyte
[19] = Terminal half life in Wistar Han rat at 2 mg/kg, po or 1 mg/kg, iv; type: ADME, organism-based; details: in vivo, read-out: beta t1/2 (converted)
[20] = Oral bioavailability in rhesus monkey at 2 mg/kg; type: ADME, organism-based, Macaca mulatta; details: in vivo
[21] = Toxicity in dog assessed as tolerance at 0.3 to 6 mg/kg treated for 7 days; type: organism-based, Canis lupus familiaris; details: in vivo, 168 h, dose 0.3-6 mg/kg, time 7 day
Rattus norvegicus [22] = test: Antihypertensive activity in spontaneous hypertensive rat model assessed as decrease in systolic blood pressure at 3 mg/kg, po QD observed for 3 days; type: functional, organism-based; details: time 3.0 day
[23] = biological target: Sodium channel protein type 5 subunit alpha (Homo sapiens, UniProt Q14524); test: Inhibition of Nav1.5 (unknown origin)
[24] = Tmax in rhesus monkey at 2 mg/kg, po or 1 mg/kg, iv; type: ADME, organism-based, Macaca mulatta; details: in vivo
[25] = biological target: Voltage-dependent L-type calcium channel subunit alpha-1C (Homo sapiens, UniProt Q13936); test: Inhibition of Cav1.2 (unknown origin)
Cytochrome P450 3A4 = Cytochrome P450 3A4 (Homo sapiens, UniProt P08684); test: Inhibition of CYP3A4 (unknown origin)
[26] = Metabolic stability in Wistar Han rat hepatocytes by LC/MS analysis; type: ADME, cell-based, Hepatocyte
[27] = Volume of distribution at steady state in Wistar Han rat at 2 mg/kg, po or 1 mg/kg, iv; type: ADME, organism-based; details: in vivo, read-out: Vdss
[28] = biological target: T3, ATP-sensitive inward rectifier potassium channel 10 (Homo sapiens, UniProt P78508); test: Inhibition of Kir4.1 (unknown origin)
T3 sequence (P78508 whole entry): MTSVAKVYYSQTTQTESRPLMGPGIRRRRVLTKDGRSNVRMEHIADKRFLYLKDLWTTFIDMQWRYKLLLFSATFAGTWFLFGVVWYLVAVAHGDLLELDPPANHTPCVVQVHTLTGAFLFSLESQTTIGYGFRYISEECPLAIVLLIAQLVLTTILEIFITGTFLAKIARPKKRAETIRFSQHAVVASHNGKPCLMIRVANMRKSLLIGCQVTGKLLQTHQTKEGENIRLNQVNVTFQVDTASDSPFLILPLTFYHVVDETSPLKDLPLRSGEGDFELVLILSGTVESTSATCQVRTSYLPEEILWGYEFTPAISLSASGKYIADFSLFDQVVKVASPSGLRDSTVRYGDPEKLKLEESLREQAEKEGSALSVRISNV

[29] = Terminal half life in Beagle dog at 2 mg/kg, po or 1 mg/kg, iv; type: ADME, organism-based, Canis lupus familiaris; details: in vivo, read-out: beta t1/2 (converted)
[30] = Volume of distribution at steady state in rhesus monkey at 2 mg/kg, po or 1 mg/kg, iv; type: ADME, organism-based, Macaca mulatta; details: in vivo, read-out: Vdss
[31] = Metabolic stability in Beagle dog hepatocytes by LC/MS analysis; type: ADME, cell-based, Canis lupus familiaris, Hepatocyte
[32] = Effective half life in Wistar Han rat at 2 mg/kg, po or 1 mg/kg, iv; type: ADME, organism-based; details: in vivo, read-out: t1/2eff (converted)

Chain of Cytochrome P450 3A4 (P08684 whole entry): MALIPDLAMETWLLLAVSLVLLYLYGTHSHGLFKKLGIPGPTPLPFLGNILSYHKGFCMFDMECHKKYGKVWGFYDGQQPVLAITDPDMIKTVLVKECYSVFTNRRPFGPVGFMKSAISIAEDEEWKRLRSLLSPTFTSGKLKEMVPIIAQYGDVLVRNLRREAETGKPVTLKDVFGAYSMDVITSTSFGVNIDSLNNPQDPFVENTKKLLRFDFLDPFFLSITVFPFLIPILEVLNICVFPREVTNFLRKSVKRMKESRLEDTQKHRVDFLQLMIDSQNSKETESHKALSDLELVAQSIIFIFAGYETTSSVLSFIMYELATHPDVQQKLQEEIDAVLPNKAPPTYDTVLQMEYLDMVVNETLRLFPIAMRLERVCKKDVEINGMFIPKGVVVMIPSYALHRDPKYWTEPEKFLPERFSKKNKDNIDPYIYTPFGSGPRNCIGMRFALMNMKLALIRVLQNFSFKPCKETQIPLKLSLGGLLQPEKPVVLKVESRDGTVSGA
Chain of Sodium channel protein type 5 subunit alpha (Q14524 whole entry): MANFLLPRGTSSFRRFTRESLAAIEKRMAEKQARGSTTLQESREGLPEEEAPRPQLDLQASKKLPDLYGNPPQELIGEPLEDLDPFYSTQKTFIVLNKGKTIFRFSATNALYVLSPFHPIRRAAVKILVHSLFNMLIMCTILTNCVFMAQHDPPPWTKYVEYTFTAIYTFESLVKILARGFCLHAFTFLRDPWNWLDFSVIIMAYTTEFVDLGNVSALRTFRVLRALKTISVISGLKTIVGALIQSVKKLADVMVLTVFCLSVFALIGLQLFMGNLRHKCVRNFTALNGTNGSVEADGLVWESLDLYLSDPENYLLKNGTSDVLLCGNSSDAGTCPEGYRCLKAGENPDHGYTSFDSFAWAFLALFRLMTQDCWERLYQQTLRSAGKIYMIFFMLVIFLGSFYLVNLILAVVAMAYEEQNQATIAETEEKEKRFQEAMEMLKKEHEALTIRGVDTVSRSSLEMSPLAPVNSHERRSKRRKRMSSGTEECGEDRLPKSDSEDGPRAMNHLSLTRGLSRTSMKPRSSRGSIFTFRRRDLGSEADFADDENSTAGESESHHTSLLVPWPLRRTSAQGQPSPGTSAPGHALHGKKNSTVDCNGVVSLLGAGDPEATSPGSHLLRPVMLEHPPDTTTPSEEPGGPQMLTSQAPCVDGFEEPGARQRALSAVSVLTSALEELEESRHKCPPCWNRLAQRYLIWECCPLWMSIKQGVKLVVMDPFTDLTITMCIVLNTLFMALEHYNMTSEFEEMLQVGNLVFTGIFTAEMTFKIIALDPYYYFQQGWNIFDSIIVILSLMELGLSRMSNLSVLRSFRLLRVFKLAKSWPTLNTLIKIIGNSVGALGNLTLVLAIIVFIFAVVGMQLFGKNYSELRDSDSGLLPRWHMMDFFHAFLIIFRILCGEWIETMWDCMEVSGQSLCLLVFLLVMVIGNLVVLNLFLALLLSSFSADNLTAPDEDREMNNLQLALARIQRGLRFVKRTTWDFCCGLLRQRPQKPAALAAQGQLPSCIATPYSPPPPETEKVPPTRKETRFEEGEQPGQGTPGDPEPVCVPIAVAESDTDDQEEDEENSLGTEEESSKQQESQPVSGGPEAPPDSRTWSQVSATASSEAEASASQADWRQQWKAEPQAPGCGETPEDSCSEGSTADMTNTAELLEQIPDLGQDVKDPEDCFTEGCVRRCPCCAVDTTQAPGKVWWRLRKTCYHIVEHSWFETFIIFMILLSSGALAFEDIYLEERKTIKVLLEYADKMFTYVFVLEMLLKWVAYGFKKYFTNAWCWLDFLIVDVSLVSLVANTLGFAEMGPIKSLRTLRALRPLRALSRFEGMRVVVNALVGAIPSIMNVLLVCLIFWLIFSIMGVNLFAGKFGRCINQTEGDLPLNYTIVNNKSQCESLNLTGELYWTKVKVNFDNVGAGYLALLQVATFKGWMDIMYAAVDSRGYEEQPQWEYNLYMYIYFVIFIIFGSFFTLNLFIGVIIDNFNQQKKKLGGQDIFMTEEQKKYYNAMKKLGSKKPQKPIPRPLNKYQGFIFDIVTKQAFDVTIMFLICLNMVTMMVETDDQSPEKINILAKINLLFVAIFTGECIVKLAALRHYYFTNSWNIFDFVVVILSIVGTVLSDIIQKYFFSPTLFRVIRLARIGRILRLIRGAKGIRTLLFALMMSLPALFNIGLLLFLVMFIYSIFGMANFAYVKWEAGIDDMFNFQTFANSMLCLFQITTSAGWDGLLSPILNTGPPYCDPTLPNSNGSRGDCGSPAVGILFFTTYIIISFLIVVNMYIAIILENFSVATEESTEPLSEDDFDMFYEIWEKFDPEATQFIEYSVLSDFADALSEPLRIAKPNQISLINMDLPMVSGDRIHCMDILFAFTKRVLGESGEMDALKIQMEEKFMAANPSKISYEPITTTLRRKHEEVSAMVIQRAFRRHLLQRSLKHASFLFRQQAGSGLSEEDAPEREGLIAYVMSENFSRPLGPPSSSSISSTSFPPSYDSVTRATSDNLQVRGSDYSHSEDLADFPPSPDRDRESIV
Chain of Voltage-dependent L-type calcium channel subunit alpha-1C (Q13936 whole entry): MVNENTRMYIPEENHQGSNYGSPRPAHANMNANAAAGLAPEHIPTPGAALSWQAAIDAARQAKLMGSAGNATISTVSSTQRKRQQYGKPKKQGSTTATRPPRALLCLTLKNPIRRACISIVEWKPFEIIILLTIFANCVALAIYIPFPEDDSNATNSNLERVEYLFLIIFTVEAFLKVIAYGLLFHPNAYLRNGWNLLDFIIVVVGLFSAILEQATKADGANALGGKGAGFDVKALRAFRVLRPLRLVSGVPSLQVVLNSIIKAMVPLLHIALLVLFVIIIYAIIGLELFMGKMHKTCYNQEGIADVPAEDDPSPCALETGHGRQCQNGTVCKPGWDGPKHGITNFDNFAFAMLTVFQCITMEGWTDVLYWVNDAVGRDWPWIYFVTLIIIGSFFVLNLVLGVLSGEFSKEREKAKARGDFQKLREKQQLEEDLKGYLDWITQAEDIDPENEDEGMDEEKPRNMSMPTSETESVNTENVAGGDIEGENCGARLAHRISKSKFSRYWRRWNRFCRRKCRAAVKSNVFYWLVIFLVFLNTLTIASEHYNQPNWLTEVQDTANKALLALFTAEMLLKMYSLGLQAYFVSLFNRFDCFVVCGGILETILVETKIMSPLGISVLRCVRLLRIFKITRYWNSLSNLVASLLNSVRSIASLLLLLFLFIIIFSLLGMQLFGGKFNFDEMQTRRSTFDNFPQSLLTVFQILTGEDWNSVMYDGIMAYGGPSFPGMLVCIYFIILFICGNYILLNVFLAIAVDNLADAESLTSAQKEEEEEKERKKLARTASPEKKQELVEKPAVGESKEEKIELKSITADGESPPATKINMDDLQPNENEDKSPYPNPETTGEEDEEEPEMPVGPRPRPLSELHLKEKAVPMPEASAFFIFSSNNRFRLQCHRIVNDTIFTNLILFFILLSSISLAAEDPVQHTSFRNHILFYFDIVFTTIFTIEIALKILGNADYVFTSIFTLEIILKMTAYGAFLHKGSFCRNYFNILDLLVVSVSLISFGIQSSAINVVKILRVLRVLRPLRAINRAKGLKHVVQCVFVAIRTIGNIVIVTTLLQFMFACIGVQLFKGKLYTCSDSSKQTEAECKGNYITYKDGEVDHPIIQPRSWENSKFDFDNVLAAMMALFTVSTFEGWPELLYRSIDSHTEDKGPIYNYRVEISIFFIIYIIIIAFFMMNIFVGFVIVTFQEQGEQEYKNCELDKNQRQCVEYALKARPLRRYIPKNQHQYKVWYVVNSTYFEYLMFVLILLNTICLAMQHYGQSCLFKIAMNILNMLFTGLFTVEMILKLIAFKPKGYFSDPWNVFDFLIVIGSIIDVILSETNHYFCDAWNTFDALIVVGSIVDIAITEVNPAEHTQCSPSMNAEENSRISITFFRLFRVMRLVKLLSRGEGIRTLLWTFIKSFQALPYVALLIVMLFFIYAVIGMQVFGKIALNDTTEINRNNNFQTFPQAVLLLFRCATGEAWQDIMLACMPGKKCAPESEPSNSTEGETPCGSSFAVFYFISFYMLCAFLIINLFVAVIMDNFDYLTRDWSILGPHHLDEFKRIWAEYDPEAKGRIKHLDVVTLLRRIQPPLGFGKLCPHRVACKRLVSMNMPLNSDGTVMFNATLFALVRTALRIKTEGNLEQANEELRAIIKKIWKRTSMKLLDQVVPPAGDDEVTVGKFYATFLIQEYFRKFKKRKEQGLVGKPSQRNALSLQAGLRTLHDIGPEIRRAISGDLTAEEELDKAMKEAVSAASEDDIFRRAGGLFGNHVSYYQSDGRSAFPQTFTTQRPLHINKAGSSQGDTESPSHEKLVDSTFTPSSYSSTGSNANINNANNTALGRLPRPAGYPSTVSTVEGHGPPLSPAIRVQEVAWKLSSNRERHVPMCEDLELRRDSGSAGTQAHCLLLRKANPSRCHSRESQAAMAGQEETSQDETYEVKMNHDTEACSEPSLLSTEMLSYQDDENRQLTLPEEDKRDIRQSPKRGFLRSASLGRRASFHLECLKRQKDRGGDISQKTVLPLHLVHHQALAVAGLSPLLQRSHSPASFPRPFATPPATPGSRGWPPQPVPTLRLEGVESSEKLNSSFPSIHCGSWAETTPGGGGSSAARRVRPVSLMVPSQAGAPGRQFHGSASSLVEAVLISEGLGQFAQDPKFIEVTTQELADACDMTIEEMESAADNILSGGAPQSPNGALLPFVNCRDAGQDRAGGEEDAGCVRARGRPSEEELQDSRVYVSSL

CC1=C(N2CCC3(CCN(C[C@H](O)c4ccc5c(c4C)COC5=O)CC3)C2=O)COC1=O
bioavailability [1]: 53%
IC50 (Cytochrome P450 2C8): > 50 µM
Stability [2]: Stable
Activity (Rattus norvegicus [3]): Dose-Dependent Effect
Stability [4]: Stable
Cmax [5]: 310 nM
IC50 [6]: > 100 µM
Stability [7]: Stable
AUC(0-inf) [8]: 15.1 µM·h
half-life [9]: 1.8 h
Tmax [10]: 0.5 h
Activity (Rattus norvegicus [11]): Active
Vd [12]: 5.2 L/kg
half-life [13]: 6.8 h
IC50 [14]: 0.005 µM
bioavailability [15]: 100%
AUC(0-inf) [16]: 1.4 µM·h
clearance [17]: 29.4 mL/min/kg
Drug metabolism [18]: Metabolite_Notdetected
half-life [19]: 3.6 h
bioavailability [20]: 3.4%
Activity [21]: Non-Toxic
Activity (Rattus norvegicus [22]): Dose-Dependent Effect
IC50 [23]: > 30 µM
Tmax [24]: 0.5 h
IC50 [25]: > 30 µM
IC50 (Cytochrome P450 3A4): > 50 µM
Stability [26]: Stable
Vd [27]: 14.7 L/kg
IC50 [28]: > 100 µM
half-life [29]: 9.1 h
Vd [30]: 7.9 L/kg
Stability [31]: Stable
half-life [32]: 1.8 h

— ChEMBL document CHEMBL5038592, “Discovery of MK-8153, a Potent and Selective ROMK Inhibitor and Novel Diuretic/Natriuretic” (J Med Chem, 2021)
